The source of these data is patent publication US8569361B1, “Aliphatic amino acid biosynthesis inhibitors and a method of synthesizing the same” (priority 2012, dated 2013).

The test system of one assay is ILV2. The experiment in a line: Semi-quantitative RT-PCR expression analysis of ilv2. It counts as cell-based, Saccharomyces cerevisiae BY4741. Conditions: sub-lethal dose, 4 hours treatment; actin loading control. On the procedure:
(§1) A semi quantitative RT-PCR analysis was used to investigate any possible effect of new antifungal compounds on the expression level of candidate gene targets.
(§2) The RNA samples were prepared by using a commercial kit i.e. RNA easy mini kit, QIAGEN, Germany. A beads cell disrupter i.e. Micro Smash™, Tomy, Japan was used during the cell lysis process. All RNA preparation steps were performed according to the manufacturer's instructions.
(§3) 1 microgram of total RNA was used in cDNA synthesis reaction. A commercial kit i.e. first strand cDNA Synthesis Kit, Fermentas, USA was used for cDNA synthesis. Total cDNA was prepared using random hexamer primer and all steps were according to the manufacturer's instructions. A typical reaction was performed as table 1 below.
(§4) RT-PCR analysis was carried out to examine the effect of new antifungal compounds on the expression level of genes involved in aliphatic amino acids biosynthesis. Three genes, ilv2, ilv3 and ilv5 were chosen for further analysis. RNA samples were isolated from the yeast cells exposed to sub-lethal or sub-inhibitory concentrations of new antifungal compounds and following a cDNA preparation. RT-PCR was performed using the gene specific primers.
(§5) RT-PCR products were visualized by electrophoresis on agarose gel and staining by ethidium bromide.
(§6) An overnight culture of yeast Saccharomyces cerevisiae BY4741 was prepared. […]

In the next assay the test system is ILV5. In words: Semi-quantitative RT-PCR expression analysis of ilv5. The assay is classed as cell-based, Saccharomyces cerevisiae BY4741. The following applies: sub-lethal dose, 4 hours treatment; actin loading control. On the procedure:
as §1, §2, §3, §4, §5, §6

In assay [1] the test system is yeast cells. In words: Minimum Inhibitory Concentration (MIC) by micro serial dilution in 96 well plate. The assay is classed as cell-based. The following applies: Saccharomyces cerevisiae, 48 hours incubation. On the procedure: Two fold serial dilutions of the compounds to be tested according to the embodiments herein were prepared in 96 well plates. 40 μl of appropriate test compound dilution was added to 160 μl of culture medium and the plate was incubated at 30° C. The culture medium is Yeast Peptone Dextrose agar (YPD) containing 10^3 yeast cells. The growth of yeast cells was monitored for 24 hr and 48 hr. Fluorouracil was used as a positive control and Dimethyl sulfoxide (DMSO-control solvent) was used as negative control. The minimum concentration of the test compound A which inhibits the fungal growth was defined as MIC. MIC level is defined as the minimum concentration of the compound which prevents the growth of pathogen. […]
After providing a serial dilution in the second row, 20 μl of the wells of the second row was transformed to the wells of first row and final volume of the wells of first row was changed to 100 μl. Finally, a surrounding part of each plate was covered with parafilm and was incubated under 37 degree of centigrade. the results were read out After 24 hours and 48 hours. […]
As a result of the growth of the fungus the medium is becoming cloudy. […] For defining the MIC, as well as the sample, positive control i.e. an approved antifungal drug like fluorouracil were measured. A solution control and a negative control i.e. only the fungal suspension were measured. […]

The test system of another assay is ILV3. The experiment in a line: Semi-quantitative RT-PCR expression analysis of ilv3. The assay is classed as cell-based, Saccharomyces cerevisiae BY4741. Conditions: sub-lethal dose, 4 hours treatment; actin loading control. As to the method: as §1, §2, §3, §4, §5, §6
For assay [2], the system named is yeast cells. In words: Reversal assay: amino acids/metabolites reversing the antifungal activity at MIC level. It counts as cell-based, Saccharomyces cerevisiae. As to the method:
Performing reversal assay: The reversal assay according to the embodiments herein is performed by the following steps in general: First the yeast strain is grown in presence of minimum inhibitory concentrations of the compounds to be tested. Then different concentrations of amino acids or metabolite intermediates are added to reverse the inhibitory effect of the test compounds. Then again the growth is checked and the minimum concentration of the metabolite or amino acids required for reversing the inhibitory effect is determined.
An experiment was designed for finding the metabolite that reverses the antifungal activity of the test compound.
With respect to FIG. 3, a cell suspension containing 1.5×10^5 yeast/ml was prepared in RPMI medium (1.2×) enriched by 2% glucose. […] 80 μl of this suspension was added to each well of a 96 well micro plate in the second row. Subsequently, two fold dilutions of reversing metabolite were prepared in the first row of the same microplate and 20 μl of each dilution was added to the related well of the second row. The plate was incubated at 30° C. overnight. Following an overnight incubation, the plate was checked for any visible growth of the strain. In case of any growth, the reversing metabolite was considered for further analysis.
In this test, all the amino acids, nucleic acids and intermediate metabolites of citric acid cycle were tested separately.
For all the compounds the mixture of mediators was evaluated. After observing that the compound was reversed, each of the mediating materials was tested separately. Reversal assay test has been done for all of the amino acids like glycine, alanine, leucine, isoleucine and valine.
Row G indicates a compound B in the absence of amino acids and cells. Row H is control cell.

Broadly, the MIC is the least concentration at which growth counts as inhibited.

The structures appear in SMILES notation. ≈ marks a conversion by molar mass, not a printed value.

With `CCOC(=O)C#C/C=C/C(=O)OCC` [compound B, diethyl-hex-2-en-4-yne-dioate], the “Expression level of ilv2, treated vs untreated cells” value with ILV2 is given as “unchanged”. Further, in the assay on ILV5, the “Expression level of ilv5, treated vs untreated cells” value was “higher than that in the untreated cells”. In the assay with yeast cells [1], the MIC was 1.5 µg/mL (≈ 7.65 µM). Moreover, the “Expression level of ilv3, treated vs untreated cells” value in the assay with ILV3 is “unchanged”. In addition, the “Minimum Reversal Concentration (MRC), isoleucine” value with yeast cells [2] (isoleucine added 0-200 μg/ml, compound at constant MIC level) came to 25 µg/mL. The “Minimum Reversal Concentration (MRC), leucine” value in the assay on yeast cells [2] (leucine added 0-200 μg/ml, compound at constant MIC level) was 12.5 µg/mL. The “Minimum Reversal Concentration (MRC), valine” value in the assay on yeast cells [2] (valine added 0-200 μg/ml, compound at constant MIC level) was determined as 12.5 µg/mL.
With `C#CC(=O)Oc1ccc2ccc(=O)oc2c1` [compound A, 2-oxo-2H-chromen-7-yl propiolate], in the assay on yeast cells [2], the “reversal property of the antifungal activity” value is “lacks the reversal property”.
